The values below come from ChEMBL document CHEMBL1201862, “PubChem BioAssay data set” (2004).

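Five concentrations, 48 hours, 96-well plates. Abbreviation: GI50, concentration required for 50% inhibition of growth.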 Calls of active or inactive are those of the source. Rule as the data show it: active = GI50 up to about 1.1 µM and inactive = higher.

Some test systems named below: 786-0; ACHN; BT-549; CAKI-1; HCC 2998; HOP-62; HOP-92; Hs-578T; MDA-MB-435; OVCAR-8; PC-3; RXF 393; SF-268; SK-MEL-2; SK-OV-3; SN12C; SNB-75; SW-620; T47D; UACC-257.
Common to all, as to test: NCI tumour cell line growth inhibition, 48 h

For the compound `O=P(O)(CCP(=O)(O)c1ccccc1)c1ccccc1`, the GI50 in the assay with 786-0, in the assay with ACHN, with BT-549, with CAKI-1, with HCC 2998 and in the assay on HOP-62 was > 100 µM (inactive) throughout. Further, the GI50 with HOP-92, in the assay on Hs-578T, in the assay on MDA-MB-435, in the assay with OVCAR-8, with PC-3 and in the assay with RXF 393 was > 100 µM (inactive) throughout. Besides, the GI50 in the assay with SF-268, in the assay with SK-MEL-2, in the assay on SK-OV-3, in the assay with SN12C, in the assay on SNB-75 and with SW-620 was > 100 µM (inactive) in each case. The GI50 with T47D and with UACC-257 was > 100 µM (inactive) throughout.
With `Cc1ccc2nc(/C=N/c3ccccc3Cl)cc(C)c2c1`, the GI50 in the assay on 786-0 was 16.7 µM (inactive); with ACHN it was 30.7 µM (inactive); in the assay on BT-549, 16.1 µM (inactive); in the assay with CAKI-1, 30.8 µM (inactive); in the assay on HCC 2998, 47.3 µM (inactive); in the assay on HOP-62 it was 38.8 µM (inactive). Moreover, the GI50 was 25.4 µM (inactive) with HOP-92; 25.5 µM (inactive) in the assay with Hs-578T; 12.7 µM (inactive) in the assay with MDA-MB-435; 15.2 µM (inactive) with OVCAR-8; 25.4 µM (inactive) in the assay with PC-3; 14.5 µM (inactive) in the assay on RXF 393. Besides, the GI50 with SF-268 was 16 µM (inactive); in the assay on SK-MEL-2, 40.2 µM (inactive); in the assay on SK-OV-3, 27.4 µM (inactive); in the assay on SN12C it was 12.2 µM (inactive); in the assay with SNB-75, 19.9 µM (inactive); in the assay on SW-620, 13.1 µM (inactive). Moreover, the GI50 is 22.4 µM (inactive) in the assay with T47D and 15.8 µM (inactive) in the assay with UACC-257.
For `CC(=O)OCC1OC(OCCCOP(=O)(OCCC#N)OCC2OC(n3cnc4c(N)ncnc43)C(OC(=O)c3ccccc3)C2OC(=O)c2ccccc2)C(OC(C)=O)C(OC(C)=O)C1OC(C)=O` (stereo not given), the GI50 with 786-0, in the assay on ACHN, in the assay on BT-549, in the assay on CAKI-1, in the assay on HCC 2998 and with HOP-62 was > 100 µM (inactive) throughout. Also, the GI50 in the assay on HOP-92 was > 100 µM (inactive); with Hs-578T, 28.7 µM (inactive); in the assay on MDA-MB-435, > 100 µM (inactive); in the assay on OVCAR-8, > 100 µM (inactive); in the assay on PC-3, > 100 µM (inactive); in the assay on RXF 393, > 100 µM (inactive). The GI50 in the assay with SF-268 is > 100 µM (inactive); in the assay with SK-MEL-2, > 100 µM (inactive); with SK-OV-3, > 100 µM (inactive); in the assay with SN12C, > 100 µM (inactive); with SNB-75 it was > 75 µM (inactive); in the assay with SW-620 it was > 100 µM (inactive). The GI50 with T47D and in the assay with UACC-257 was > 100 µM (inactive) each time.
Turning to `CC(=O)SC(C[N+](=O)[O-])c1ccccc1` (stereo not given), the GI50 in the assay on 786-0 is 3.95 µM (inactive); in the assay with ACHN, 3.66 µM (inactive); in the assay on BT-549, 2.22 µM (inactive); in the assay on CAKI-1, 14 µM (inactive); in the assay on HCC 2998, 4.75 µM (inactive); in the assay with HOP-62, 15.3 µM (inactive). For the same compound, the GI50 with HOP-92 was 12.6 µM (inactive); with Hs-578T, 4.65 µM (inactive); in the assay with MDA-MB-435, 2.09 µM (inactive); in the assay with OVCAR-8 it was 11.8 µM (inactive); in the assay on PC-3, 10.7 µM (inactive); in the assay on RXF 393, 2.1 µM (inactive). Moreover, the GI50 was 7.98 µM (inactive) with SF-268; 19.8 µM (inactive) in the assay with SK-MEL-2; 13.3 µM (inactive) in the assay on SK-OV-3; 11.1 µM (inactive) with SN12C; 2.29 µM (inactive) in the assay with SNB-75; 2.18 µM (inactive) in the assay on SW-620. The GI50 was 10.4 µM (inactive) in the assay on T47D and 11.3 µM (inactive) with UACC-257.
With `COC(=O)C(=O)C(C(=O)C(N)=O)c1nc2ccc(C(=O)c3ccccc3)cc2nc1O` (stereo not given), the GI50 with 786-0 was > 100 µM (inactive); in the assay with ACHN, 63 µM (inactive); with BT-549 it was > 100 µM (inactive); with CAKI-1 it was 56 µM (inactive); in the assay with HCC 2998 it was > 100 µM (inactive); in the assay on HOP-62, > 100 µM (inactive). The GI50 is > 100 µM (inactive) with HOP-92; 80.5 µM (inactive) with Hs-578T; 65 µM (inactive) in the assay with MDA-MB-435; 53.8 µM (inactive) with OVCAR-8; 75.2 µM (inactive) in the assay with PC-3; 69.7 µM (inactive) in the assay with RXF 393. Besides, the GI50 is > 100 µM (inactive) in the assay on SF-268; > 100 µM (inactive) in the assay with SK-MEL-2; > 100 µM (inactive) in the assay on SK-OV-3; > 100 µM (inactive) in the assay on SN12C; 69 µM (inactive) in the assay with SNB-75; > 100 µM (inactive) in the assay on SW-620. The GI50 with T47D is 70.5 µM (inactive); in the assay on UACC-257, > 100 µM (inactive).
Take `CCOP(=O)(OCC)OC1c2[nH]cc(C(=O)OCc3ccccc3)c2-c2cc(C(=O)OC)[nH]c2C1OC` (stereo not given): the GI50 is 7.76 µM (inactive) with 786-0; 4.66 µM (inactive) in the assay with ACHN; 12.1 µM (inactive) in the assay on BT-549; 20.2 µM (inactive) with CAKI-1; 6.85 µM (inactive) in the assay with HCC 2998; 7.76 µM (inactive) in the assay on HOP-62. Further, the GI50 in the assay on HOP-92 was 4.28 µM (inactive); in the assay with Hs-578T it was 16.8 µM (inactive); in the assay on MDA-MB-435 it was > 60.1 µM (inactive); with OVCAR-8, 12.8 µM (inactive); in the assay on PC-3, 4.94 µM (inactive); in the assay on RXF 393, 8.18 µM (inactive). In addition, the GI50 with SF-268 is 12.5 µM (inactive); in the assay with SK-MEL-2, 9.4 µM (inactive); with SK-OV-3 it was 17.7 µM (inactive); in the assay on SN12C, 16.4 µM (inactive); in the assay on SNB-75, 13.2 µM (inactive); with SW-620 it was 14.5 µM (inactive). The GI50 in the assay with T47D was 7.91 µM (inactive); in the assay on UACC-257, 6.79 µM (inactive).
`CC(Oc1ccccc1Cl)C(=O)NN1C(=O)CC(=O)NC1=S` (stereo not given): the GI50 is > 100 µM (inactive) in the assay on 786-0; 63.7 µM (inactive) in the assay with ACHN; > 100 µM (inactive) with BT-549; > 100 µM (inactive) in the assay with CAKI-1; > 100 µM (inactive) with HCC 2998; > 100 µM (inactive) in the assay with HOP-62. Moreover, the GI50 in the assay on HOP-92, in the assay with Hs-578T, with MDA-MB-435, with OVCAR-8, with PC-3 and in the assay with RXF 393 was > 100 µM (inactive) throughout. The GI50 in the assay on SF-268 is > 100 µM (inactive); in the assay on SK-MEL-2, 93.5 µM (inactive); in the assay with SK-OV-3, > 100 µM (inactive); in the assay on SN12C it was > 100 µM (inactive); in the assay on SNB-75, > 100 µM (inactive); with SW-620, > 100 µM (inactive). Besides, the GI50 was 36.6 µM (inactive) with T47D and > 100 µM (inactive) with UACC-257.
Turning to `O=C1C(CN2CCCC2)CCC1CN1CCCC1` (stereo not given), the GI50 in the assay on 786-0 was 15.8 µM (inactive); with ACHN, 15.8 µM (inactive); with BT-549, 17.5 µM (inactive); in the assay with CAKI-1, 11 µM (inactive); in the assay on HCC 2998, > 100 µM (inactive); in the assay on HOP-62 it was > 100 µM (inactive). For the same compound, the GI50 in the assay on HOP-92 was 14.4 µM (inactive); in the assay on Hs-578T it was 22.3 µM (inactive); with MDA-MB-435, 17.6 µM (inactive); in the assay on OVCAR-8, 18.3 µM (inactive); in the assay on PC-3, 23.7 µM (inactive); in the assay with RXF 393, 20.4 µM (inactive). The GI50 in the assay with SF-268 is 20.8 µM (inactive); in the assay with SK-MEL-2, 21.2 µM (inactive); in the assay on SK-OV-3, > 100 µM (inactive); with SN12C, 26.7 µM (inactive); in the assay with SNB-75, 17.9 µM (inactive); with SW-620 it was 4.12 µM (inactive). Moreover, the GI50 was 17.4 µM (inactive) with T47D and 16.8 µM (inactive) in the assay on UACC-257.
On to `C/C(=C\COc1cc(O)c2c(c1)C(=O)c1cc(C)cc(O)c1C2=O)CCC1OC1(C)C` (stereo not given), for which the GI50 was 58.2 µM (inactive) with 786-0; 40.9 µM (inactive) in the assay on ACHN; 26.7 µM (inactive) in the assay with BT-549; 21 µM (inactive) in the assay on CAKI-1; > 100 µM (inactive) with HCC 2998; 46 µM (inactive) with HOP-62. Further, the GI50 with HOP-92 was 29.4 µM (inactive); with Hs-578T it was 24.1 µM (inactive); in the assay with MDA-MB-435, > 100 µM (inactive); in the assay with OVCAR-8, 47.9 µM (inactive); in the assay with PC-3 it was > 100 µM (inactive); in the assay with RXF 393, 30.2 µM (inactive). Moreover, the GI50 is 42.3 µM (inactive) in the assay on SF-268; > 100 µM (inactive) with SK-MEL-2; > 100 µM (inactive) with SK-OV-3; > 100 µM (inactive) with SN12C; 28.2 µM (inactive) in the assay with SNB-75; > 10 µM (inactive) in the assay with SW-620. The GI50 with T47D was 49.4 µM (inactive); with UACC-257 it was > 100 µM (inactive).
As to `CCc1nc(N)nc(N)c1-c1ccc(NC)c([N+](=O)[O-])c1`, the GI50 with 786-0 was 0.558 µM (active); in the assay with ACHN it was 0.594 µM (active); in the assay with BT-549 it was 26.1 µM (inactive); with CAKI-1, 0.767 µM (active); in the assay on HCC 2998, 3.56 µM (inactive); with HOP-62, 1.79 µM (inactive). The GI50 is 8.81 µM (inactive) in the assay with HOP-92; 23.6 µM (inactive) in the assay on Hs-578T; 0.586 µM (active) in the assay on MDA-MB-435; 0.662 µM (active) with OVCAR-8; 0.804 µM (active) with PC-3; 16 µM (inactive) in the assay on RXF 393. For the same compound, the GI50 is 0.815 µM (active) in the assay on SF-268; 21.2 µM (inactive) with SK-MEL-2; 28.7 µM (inactive) in the assay with SK-OV-3; 0.91 µM (active) in the assay with SN12C; 10.8 µM (inactive) in the assay with SNB-75; 0.481 µM (active) in the assay with SW-620. Moreover, the GI50 in the assay on T47D is 21.4 µM (inactive); in the assay on UACC-257 it was 18 µM (inactive).
